Article PMC3551756, “HIV-1 Fusion Is Blocked through Binding of GB Virus C E2D Peptides to the HIV-1 gp41 Disulfide Loop” (PLoS ONE, 2013)

Tests used:
[1] = test system: CCR5; assay: CCR5 surface expression, flow cytometry; assay type: cell-based, human; settings: PBMC and TZM-bl cells; E2 peptides 25 µM, RANTES 50 nM; 6 hr; FACS; RTCN vs mock; average of two independent experiments each in triplicate
Procedure: PHA/IL-2-stimulated PBMC or TZM-bl cells were incubated with E2 peptides (25 µM), phorbol 12-myristate 13-acetate (PMA; 40 ng/ml), SDF-1α (1 µg/ml) or RANTES (50 nM) for 6 hr. CD4, CXCR4 and CCR5 surface expression was analyzed by using standard FACS staining protocols. Cells were washed with PBS and incubated for 30 min at 4°C with PE-labeled antibodies (CD4 clone SK3, CXCR4 clone 12G5, and CCR5 clone 2D7, BD Biosciences, Germany). Subsequently, washed cells were resuspended in PBS and analyzed with a FACSCalibur™ flow cytometer (BD Biosciences, Germany).
The non-HIV-1-inhibitory peptide P28 derived from the C-terminal part of E2 (residue 271 to 290), served as a negative control.
CD4, CXCR4 and CCR5 expression on PBMC (A) and TZM-bl cells (B) after preincubation with E2 peptides were determined by flow cytometry analysis. […] Percentages illustrate the ratio-to-cell-negative (RTCN) values that were calculated from the percentage of positive cells and the fluorescence intensity of peptide-incubated cells compared to mock-incubated cells. Columns show average values ±SD of two independent experiments each performed in triplicate. *: p<0.05; **: p<0.01 (mock- vs. inhibitor-incubated cells).

[2] = test system: 6-helix bundle (N36/C34-biotin); assay: Inhibition of 6-HB formation, ELISA; assay type: binding, HIV-1; settings: mAb NC-1 capture, N36 0.25 µM, C34-biotin 0.25 µM, graded peptide, 30 min 37°C, triplicate
Procedure: Briefly, 96-well polystyrene plates were coated with the 6-HB-specific monoclonal antibody, NC-1 IgG, (described by) (2 µg/ml in 0.1 M Tris, pH 8.8), and then blocked with 2% non-fat milk. N36 (0.25 µM), the tested peptides and C34 as control were added at graded concentrations into the wells. After incubation for 30 min at 37°C, C34-biotin (0.25 µM) was added, followed by incubation for 45 min at 37°C and washing with wash buffer (PBS containing 0.05% Tween-20) six times. Streptavidin-labeled horseradish peroxidase (Invitrogen, Grand Island, NY) and the substrate 3,3′,5,5′-tetramethylbenzidine (Sigma, St. Louis, MO) were added sequentially. Absorbance at 450 nm (OD450) was measured. The percent inhibition of 6-HB formation by the peptides was calculated as described before.
Figure 5 E2-derived peptides bind to the disulfide loop of gp41. (A) Illustration of gp41 variants (strains IIIB, MN) and peptides (N36, C34) used in ELISA as well as the binding epitopes of different monoclonal gp41 antibodies. Gp41 consists of the N-terminal fusion peptide (FP), the N- and C-heptad repeats (NHR, CHR) that are connected by the disulfide loop region (C-C loop), the membrane proximal external region (MPER), the α-helical transmembrane-spanning domain (TM), and the cytoplasmic tail (CP). […] Each sample was tested in triplicate. This experiment was repeated twice and similar results were obtained. […]

[3] = test system: gp41MN; assay: Competitive ELISA, E2 peptides versus gp41 mAbs on immobilized gp41MN; assay type: binding, HIV-1; settings: increasing peptide, three independent experiments each in duplicate; for inhibition of F240 binding to gp41: mAb F240 (disulfide loop); for inhibition of F240 binding to gp41 / inhibition of T32 binding to gp41: immobilized gp41MN; for inhibition of T32 binding to gp41: mAb T32 (disulfide loop); for inhibition of gp41 binding of 246-D, D50, 5F3, 2F5, 4E10 and Chessie 8: mAbs other than F240 and T32, immobilized gp41MN
Procedure: Flat-bottom, 96-well Microtest ELISA plates (Sarstedt, Germany) were coated overnight at 4°C with recombinant HIV-1 gp120 (0.5 µg/ml), gp41 (0.22 µg/ml) proteins, or with streptavidin (4 µg/ml) in coating buffer (0.1 M NaHCO3, 0.1 M Na2CO3, pH 9.87). Nonspecific binding was blocked (blocking buffer: 1% BSA, 0.1% Tween-20 in phosphate buffer, pH 7.2) for 1 h at room temperature, followed by washing steps (wash buffer: 0.1% Tween in phosphate buffer, pH 7.2). Streptavidin-coated plates were then incubated with gp41 disulfide loop peptides (Loop36ox or Loop36s; 2.5 µM). All plates were then incubated with recombinant E2_340-Fc or Fc protein in serial dilutions in sample buffer (phosphate buffer, pH 7.2) for 3 hr at room temperature. To perform the competitive ELISAs, the recombinant E2_340-Fc protein was adjusted at 5 µg/ml and the monoclonal gp41 antibodies (246-D, F240, T32, D50, 2F5, 4E10, Chessie 8 [all: NIH AIDS Research and Reference Reagent Program], and 5F3 [Polymun, Austria]) at […]. After washing procedure, the plates were incubated for 1 h with polyclonal rabbit anti-human IgG peroxidase antibody (Dako, Germany) 1∶6000 in sample buffer and washed. Plates were developed with TMB peroxidase substrate solution (KPL, USA), or with OPD/H2O2 solution in the dark. Absorbances (ODs) were read at 450 or 492 nm, respectively, using a multi-channel photometer (ELISA-Reader AxSYM, Abbott Laboratory, USA).
(A) Illustration of gp41 variants (strains IIIB, MN) and peptides (N36, C34) used in ELISA as well as the binding epitopes of different monoclonal gp41 antibodies. Gp41 consists of the N-terminal fusion peptide (FP), the N- and C-heptad repeats (NHR, CHR) that are connected by the disulfide loop region (C-C loop), the membrane proximal external region (MPER), the α-helical transmembrane-spanning domain (TM), and the cytoplasmic tail (CP). […] Each sample was tested in triplicate. […] (C) Competitive binding of E2 peptides and different gp41 targeting mAbs to immobilized recombinant gp41MN. Simultaneously to mAb incubation E2 peptides were added with increasing amounts. […] The graphs show average values of three independent experiments each performed in duplicate.
Finally, we performed a direct binding assay with biotin-tagged 36mer gp41 disulfide loop peptides (residues from 588 to 623 according to HIV gp160HxB2) and GBV-C E2_340-Fc. We immobilized via streptavidin an oxidized (closed loop) or a linear variant of the disulfide loop, in which the cysteine residues were replaced with serine (Table S1) onto plates and the binding of graded concentrations of GBV-C E2_340-Fc was monitored with HRP-anti-human antibodies.

[4] = test system: F240; assay: Unspecific binding of E2 peptides to antibody F240; settings: data not shown

Row | Molecule | CCR5 surface presentation [1] | inhibition of 6-HB formation [2] | inhibition of F240 binding to gp41 [3] | inhibition of T32 binding to gp41 [3] | inhibition of gp41 binding of 246-D, D50, 5F3, 2F5, 4E10 and Chessie 8 [3] | unspecific binding to antibody F240 [4]
1 | CC(=O)N[C@@H](CC(C)C)C(=O)N[C@@H](CS)C(=O)N[C@@H](CC(=O)O)C(=O)N[C@@H](CS)C(=O)N1CCC[C@H]1C(=O)N[C@@H](CC(N)=O)C(=O)NCC(=O)N1CCC[C@H]1C(=O)N[C@@H](Cc1c[nH]c2ccccc12)C(=O)N[C@H](C(=O)N[C@@H](Cc1c[nH]c2ccccc12)C(=O)N[C@H](C(=O)N1CCC[C@H]1C(=O)N[C@@H](C)C(=O)N[C@@H](Cc1ccccc1)C(=O)N[C@@H](CS)C(=O)N[C@@H](CCC(N)=O)C(=O)N[C@@H](C)C(=O)N[C@H](C(=O)NCC(=O)O)C(C)C)C(C)C)C(C)C [P6-2] | no relevant effect on HIV-1 receptor presentation | Neither P4-7 nor P6-2 was able to interfere with the formation of 6-HB | inhibited in a dose-dependent manner | inhibited in a dose-dependent manner | Of the eight antibodies, only the gp41 interaction of F240 and T32 was inhibited | No unspecific binding
2 | Ac-WDRGNVTLLCDCPNGPWVWV [P4-7, 20 mer peptide presenting amino acids 37 to 56 of the GBV-C E2 protein] | no relevant effect on HIV-1 receptor presentation | Neither P4-7 nor P6-2 was able to interfere with the formation of 6-HB | inhibited in a dose-dependent manner | inhibited in a dose-dependent manner | Of the eight antibodies, only the gp41 interaction of F240 and T32 was inhibited | No unspecific binding
